In assay [1] the target is T1, RORγ ligand binding domain (Homo sapiens, UniProt P51449). Description: RORγ radioligand competition binding assay (SPA). Conditions: competition with tritiated 2-(4-(ethylsulfonyl)phenyl)-N-(4-(2-(methoxymethyl)phenyl)thiophen-2-yl)acetamide (25 nM), hRORγ LBD. An excerpt:
RORγ Radioligand Competition Binding Assay The aim of this assay is to identify compounds which bind to the RORγ ligand binding domain, by competing with tritiated 2-(4-(ethylsulfonyl)phenyl)-N-(4-(2-(methoxymethyl)phenyl)thiophen-2-yl)acetamide. Human RORγ (Ligand Binding Domain (RORγ LBD) was expressed in E. coli (BL21DE3 Star) as a fusion protein: N-6×HN-Avi-GST-TCS-hRORγ LBD (S258-K518) subcloned into pET24a(+). The LBD (258-518) is underlined in the protein sequence: The scintillation proximity assay (SPA) was run in white polystyrene flat-bottom 384-well plates (Greiner, cat. No. 781075). Assays were carried out in 40 μl reaction volumes. Various concentrations of test ligands in 0.4 microlitres of DMSO were added to assay plates using an acoustic liquid dispenser. 4 nM purified N-(HN)6-GST-TCS-hRORγ (258-518) was mixed with 40 micrograms Yttrium oxide (YOx) glutathione SPA imaging beads in assay buffer (20 mM Tris, 150 mM NaCl, 10% Glycerol, 0.25% CHAPS, 1 mM TCEP) prior to adding 30 microlitres to test ligands. Assay plates were incubated for one hour at room temperature before adding 10 microlitres tritiated 2-(4-(ethylsulfonyl)phenyl)-N-(4-(2-(methoxymethyl)phenyl)thiophen-2-yl)acetamide to test plates in assay buffer (final concentration, 25 nM). Test plates were incubated for 16 hours and read using a LEADseeker Multimodality imaging instrument. The raw data was analysed and IC50 and Ki values for the compounds were calculated using Genedata Screener software. Raw data was transformed to % effect using equation 1: Compound % effect=100*[(X−min)/(max−min)], where X represents the normalized value for the compound based on the Min (vehicle) and Max (reference compound) inhibition controls. The concentration of test ligand that inhibited radioligand binding by 50% (i.e., the IC50) was calculated by plotting the % effect versus test ligand concentration and fitting the data using the Genedata Screener Smart fit algorithm. Ki is calculated from the IC50 value using the equation Ki=IC50/1+[L]/Kd) where [L]=25 nmol/L and Kd=17 nmol/L

Assay [2] concerns the target T1, RORγ ligand binding domain. Description: RORγ co-factor recruitment assay (FRET). The class given is biochemical. The arrangement: made in house; host or cells: E. coli BL21DE3 Star. As to conditions: inhibition of recruitment of SRC-1 peptide (NCOA1_677-700) to hRORγ LBD, HTRF read-out. An excerpt: RORγ Co-Factor Recruitment Assay A high throughput coactivator binding assay for the identification of inverse agonists of the recruitment of peptide SRC-1 (NCOA1_677-_700) to the RORγ ligand binding domain was established. The ligand binding domain (LBD) of human RORγ was expressed in E. coli (BL21DE3 Star) as a fusion protein: N-6×HN-MBP-Avi-TCS-hRORγLBD(P260-K518) subcloned into pET24a(+). The LBD (P260-K518) is underlined in the protein sequence: The assay was run in black 384 well plates (Greiner cat no: 784900). Various concentrations of test ligands in 0.1 microlitres DMSO were dispensed to assay plates using an Echo acoustic dispenser. Two pre-mixes were prepared and incubated for 1 h at room temp in the dark. Pre-mix 1 comprised 100 nM Protein (Biotinylated HN-Avi-MBP-TCS-hRORγ (258-518)) and 60 nM Streptavidin APC in assay buffer, 50 mM MOPS pH7.4, 50 mM KF, 0.003% (w/v) CHAPS, 10 mM DTT and 0.01% (w/v) BSA and pre-mix 2 comprised 160 nM biotinylated SRC-1 peptide (NCOA1-677-700) and 20 nM Europium-W8044 labelled Streptavidin in assay buffer. Five microlitres of pre-mix 2 was dispensed to assay plates containing 0.1 microlitres of test compound and was incubated for 15 min prior to adding five microlitres of pre-mix 1. Plates were incubated at rt for 1 hour in the dark, prior to reading in a Pherastar multi-mode plate reader using HTRF filter set (ex 320, em 612 and 665). The FRET signal at 665 nm was divided by the signal at 612 nm and multiplied by 10,000 to generate a signal ratio value for each well. The raw data was transformed to % effect using the equation: Compound % effect=100*[(X−min)/(max−min)], where X represents the normalized value for the compound based on the Min (vehicle) and Max (reference compound) inhibition control. The concentration of test ligand that inhibited the activity by 50% (i.e., the IC50) was calculated by plotting the % effect versus test ligand concentration and fitting the data using the Genedata Screener Smart fit algorithm.
In general terms: TR-FRET usually uses a lanthanide donor and a delayed reading to cut background.

The subject of another assay is human TH17 cells. Description: Inhibition of IL-17 release from human TH17 cells. The class given is cell-based. As to conditions: 96 h; isolated human TH17 cells cultured 4 days, IL-17A in supernatant by HTRF; read-out: pIC50 IL-17 release (converted). From the text: Inhibition of IL-17 Release from Human TH17 Cells
This test is designed to screen compounds for their inhibitory effect on the release of IL-17 from isolated and cultured human TH17 cells.
Peripheral blood mononuclear cells (PBMC) were isolated from heparin treated human whole blood from healthy donors by density gradient centrifugation. TH17 cells (CD4+CXCR3−CCR6+) were enriched using a human TH17 Cell Enrichment Kit (Stemcell Technologies) according to the manufacturer's protocol. The isolated TH17 cells were activated with aCD3aCD28 beads (MACS Miltenyi) and cultured in X-Vivo15 medium (Lonza) supplemented with L-glutamine, β-mercaptoethanol and a cytokine cocktail consisting of; IL-2, IL-23, IL-1β, IL-6, TGF-β. Cells were seeded at 8000 cells/well in a 384-plate (Corning, #3707) in the presence of compounds or DMSO and cultured for 4 days (37° C., 5% CO2). On day 4 supernatants were collected and IL-17A was measured using a Human IL-17 HTRF Assay kit (Cisbio Bioassays) according to the manufacturer's protocol. The IC50 values for the tested compounds was calculated using Genedata Screener® software (Genedata) using the following calculation method; Compound % effect=100*[(X−min)/(max−min)], where X represents the normalized value for the compound based on the Min (DMSO) and Max (compound 3-(1,3-benzodioxol-5-yl)-1-(3,5-dimethylpiperidin-1-yl)-3-(2-hydroxy-4,6-dimethoxyphenyl)propan-1-one at 10 μM, described in J. R. Hu et al. ACS Med. Chem. Lett. 2013, 4, 79-84) inhibition controls. Results

Molecules are shown by their SMILES. pIC50: −log10 of the molar value.

Usually pIC50 stands for the IC50 on a negative log10 scale, so that one unit is a factor of ten. For the compound `CC(=O)N1Cc2cc(S(=O)(=O)CC3CC3)ccc2C1C(=O)Nc1ccc(C(C#N)(C(F)(F)F)C(F)(F)F)cc1` (stereo not drawn) [Example 13, 2-Acetyl-N-[4-(2-cyano-1,1,1,3,3,3-hexafluoropropan-2-yl)phenyl]-5-[(cyclopropylmethyl)sulfonyl]-2,3-dihydro-1H-isoindole-1-carboxamide], the pIC50 in assay [1] was 8.20; in assay [2], 7.20. Moreover, the IC50 in the assay with human TH17 cells is 5.01 nM.
Take `CC(=O)N1Cc2cc(S(C)(=O)=O)ccc2C1C(=O)Nc1ccc(C(NC2CCOCC2)(C(F)(F)F)C(F)(F)F)cc1` (stereo not drawn) [Example 20, 2-Acetyl-N-{4-[1,1,1,3,3,3-hexafluoro-2-(tetrahydro-2H-pyran-4-ylamino)propan-2-yl]phenyl}-5-(methylsulfonyl)-2,3-dihydro-1H-isoindole-1-carboxamide]: the pIC50 in assay [1] and in assay [2] was 7.00 throughout. Further, the IC50 in the assay with human TH17 cells is 50.1 nM.
`CC(=O)N1Cc2cc(S(C)(=O)=O)ccc2C1C(=O)Nc1ccc(C(CC(=O)N(C)C)(C(F)(F)F)C(F)(F)F)cc1` (stereo not drawn) [Example 42, 2-Acetyl-N-{4-[4-(dimethylamino)-1,1,1-trifluoro-4-oxo-2-(trifluoromethyl)butan-2-yl]phenyl}-5-(methylsulfonyl)-2,3-dihydro-1H-isoindole-1-carboxamide]: the pIC50 in assay [1] was 6.10; in assay [2], 6.50. For the same compound, the IC50 with human TH17 cells is 794 nM.
For `COCCNC(c1ccc(NC(=O)C2c3ccc(S(C)(=O)=O)cc3CN2C(C)=O)cc1)(C(F)(F)F)C(F)(F)F` (stereo not drawn) [Example 17, 2-Acetyl-N-(4-{1,1,1,3,3,3-hexafluoro-2-[(2-methoxyethyl)amino]propan-2-yl}phenyl)-5-(methylsulfonyl)-2,3-dihydro-1H-isoindole-1-carboxamide], the pIC50 in assay [1] was 7.50; in assay [2], 7.00. Also, the IC50 in the assay on human TH17 cells was 20 nM.
Taken in the same sequence, the figures for `COC(=O)CC(c1ccc(NC(=O)C2c3ccc(S(C)(=O)=O)cc3CN2C(C)=O)cc1)(C(F)(F)F)C(F)(F)F` (stereo not drawn) [Example 32, Methyl 3-[4-({[2-acetyl-5-(methylsulfonyl)-2,3-dihydro-1H-isoindol-1-yl]carbonyl}amino)phenyl]-4,4,4-trifluoro-3-(trifluoromethyl)butanoate] were 7.60, 7.30 and 15.8 nM.
Taken in the same sequence, the figures for `CC(=O)N1Cc2cc(S(C)(=O)=O)ccc2C1C(=O)Nc1ccc(C(NCCCS(C)(=O)=O)(C(F)(F)F)C(F)(F)F)cc1` (stereo not drawn) [Example 22, 2-Acetyl-N-[4-(1,1,1,3,3,3-hexafluoro-2-{[3-(methylsulfonyl)propyl]amino}propan-2-yl)phenyl]-5-(methylsulfonyl)-2,3-dihydro-1H-isoindole-1-carboxamide] were 6.00, 6.00 and 794 nM.
Taken in the same sequence, the figures for `N#CC(c1ccc(NC(=O)C2NCc3cc(S(=O)(=O)CC4CC4)ccc32)cc1)(C(F)(F)F)C(F)(F)F` (stereo not drawn) [Example 12, N-[4-(2-Cyano-1,1,1,3,3,3-hexafluoropropan-2-yl)phenyl]-5-[(cyclopropylmethyl)sulfonyl]-2,3-dihydro-1H-isoindole-1-carboxamide] were 8.10, 7.00 and 25.1 nM.
Take `COC1(CNC(c2ccc(NC(=O)C3c4ccc(S(C)(=O)=O)cc4CN3C(C)=O)cc2)(C(F)(F)F)C(F)(F)F)CC1` (stereo not drawn) [Example 18, 2-Acetyl-N-[4-(1,1,1,3,3,3-hexafluoro-2-{[(1-methoxycyclopropyl)methyl]amino}propan-2-yl)phenyl]-5-(methylsulfonyl)-2,3-dihydro-1H-isoindole-1-carboxamide]: the pIC50 in assay [1] is 7.30; in assay [2], 6.70. Further, the IC50 in the assay on human TH17 cells was 25.1 nM.
Take `CC(=O)N1Cc2cc(S(C)(=O)=O)ccc2C1C(=O)Nc1ccc(C(CC(=O)NC2CC2)(C(F)(F)F)C(F)(F)F)cc1` (stereo not drawn) [Example 38, 2-Acetyl-N-{4-[4-(cyclopropylamino)-1,1,1-trifluoro-4-oxo-2-(trifluoromethyl)butan-2-yl]phenyl}-5-(methylsulfonyl)-2,3-dihydro-1H-isoindole-1-carboxamide]: the figures for the pIC50 in assay [1] and in assay [2] were 6.10 and 6.20, respectively. Further, the IC50 in the assay on human TH17 cells was 1000 nM.
On the same counts, the results for `COC1(C(=O)N2Cc3cc(S(C)(=O)=O)ccc3C2C(=O)Nc2ccc(C(C#N)(C(F)(F)F)C(F)(F)F)cc2)CC1` (stereo not drawn) [Example 3, N-[4-(2-Cyano-1,1,1,3,3,3-hexafluoropropan-2-yl)phenyl]-2-[(1-methoxycyclopropyl)carbonyl]-5-(methylsulfonyl)-2,3-dihydro-1H-isoindole-1-carboxamide] are 7.70, 6.60 and 15.8 nM.
Turning to `CC(=O)N1Cc2cc(S(C)(=O)=O)ccc2C1C(=O)Nc1ccc(C(CCF)(C(F)(F)F)C(F)(F)F)cc1` (stereo not drawn) [Example 35, 2-Acetyl-5-(methylsulfonyl)-N-{4-[1,1,1,4-tetrafluoro-2-(trifluoromethyl)butan-2-yl]phenyl}-2,3-dihydro-1H-isoindole-1-carboxamide], the pIC50 in assay [1] is 8.00; in assay [2], 7.40. Besides, in the assay with human TH17 cells, the IC50 was 6.31 nM.
On the same counts, the results for `CS(=O)(=O)c1ccc2c(c1)CN(C(=O)CO)C2C(=O)Nc1ccc(C(C#N)(C(F)(F)F)C(F)(F)F)cc1` (stereo not drawn) [Example 5, N-[4-(2-Cyano-1,1,1,3,3,3-hexafluoropropan-2-yl)phenyl]-2-(hydroxyacetyl)-5-(methylsulfonyl)-2,3-dihydro-1H-isoindole-1-carboxamide] are 7.90, 7.30 and 10 nM.

For the origin of these results see patent publication US11034654B2, “2,3-dihydroisoindole-1-carboxamides useful as ROR-gamma modulators” (AstraZeneca AB, priority 2017, dated 2021).
